The values that follow come from patent US6710044B2, “Technical field” (NeuroSearch A/S, priority 1996, dated 2004).

Data set [1] deals with benzodiazepine receptor sites (GABAA receptor complex). Put plainly: In vitro inhibition of 3H-flunitrazepam (3H-FNM) binding, cerebral cortex membranes. Conditions: inhibition of specific binding of 3H-FNM (1 nM), rat cerebral cortex membranes, 40 min at 2° C. How it is done:
The affinity of various potential ligands for the benzodiazepine receptor sites can thus be evaluated by estimating the ability of test compounds to displace ^3H-flunitrazepam.
Tissue Preparation: Preparations are performed at 0-4° C. unless otherwise indicated.
Cerebral cortex from male Wistar rats (150-200 g) is homogenized for 5-10 sec in 20 ml Tris-HCl (30 mM, pH 7.4) using an Ultra-Turrax homogenizer. The suspension is centrifuged at 27,000×g for 15 min, and the pellet is washed three times with buffer (centrifuged at 27,000×g for 10 min). The washed pellet is homogenized in 20 ml of buffer and incubated on a water bath (37° C.) for 30 min to remove endogenous GABA and then centrifuged for 10 min at 27,000×g. The pellet is then homogenized in buffer and centrifuged for 10 min at 27,000×g. The final pellet is resuspended in 30 ml buffer and the preparation is frozen and stored at −20° C.
Assay: The membrane preparation is thawed and centrifuged at 2° C. for 10 min at 27,000×g. The pellet is washed twice with 20 ml 50 mM Tris-citrate, pH 7.1 using an Ultra-Turrax homogenizer and centrifuged for 10 min at 27,000×g. The final pellet is resuspended in 50 mM Tris-citrate, pH 7.1 (500 ml buffer per g of original tissue), and then used for binding assays. Aliquots of 0.5 ml tissue are added to 25 μl of test solution and 25 μl of ^3H-FNM (1 nM, final concentration), mixed and incubated for 40 min at 2° C. Non-specific binding is determined using clonazepam (1 μM, final concentration). After incubation the samples are added 5 ml of ice-cold buffer and poured directly onto Whatman GF/C glass fibre filters under suction and immediately washed with 5 ml ice-cold buffer. The amount of radioactivity on the filters is determined by conventional liquid scintillation counting. Specific binding is total binding minus non-specific binding.
The test value is calculated as the IC50 (the concentration (nM) of the test substance which inhibits the specific binding of ^3H—FNM by 50%).

The IC50 is the concentration that inhibits the measured activity by half. As usually defined, the melting point is the temperature, or range, at which the solid turns liquid. As to `OCCN1CCN(c2cccc(-n3cnc4cc(-c5ccoc5)ccc43)c2)CC1` [compound 3i3, 5-(3-Furanyl)-1-(3-(4-(2-hydroxyethyl)piperazin-1-yl)phenyl)benzimidazole], the melting point lay in the range of 137 to 140 °C. Also, the IC50 in data set [1] turned out to be 5 nM.

`CCOC(=O)c1ccc2c(c1)ncn2-c1cccc(N2CCN(CC(=O)OC)CC2)c1.Cl` [compound 4a5, 5-(Ethoxycarbonyl)-1-(3-(4-(methoxycarbonylmethyl)piperazin-1-yl)phenyl)-benzimidazole, hydrochloride] came in with a melting point of 185 to 186 °C. Besides, the IC50 in data set [1] was determined as 50 nM.

In turn, `COC(=O)Cc1ccc2c(c1)ncn2-c1cccc(N2CCN(C)CC2)c1.Cl` [compound 4l1, 5-(Methoxycarbonylmethyl)-1-(3-(4-methylpiperazin-1-yl)phenyl)benzimidazole, hydrochloride] displayed a melting point of 140 to 142 °C. In addition, the IC50 in data set [1] came to 25 nM.

`COC(=O)CON=C(C)c1ccc2c(c1)ncn2-c1cccc(N2CCN(CCO)CC2)c1` [compound 5c1, 5-Acetyl-1-(3-(4-(2-hydroxyethyl)piperazin-1-yl)phenyl)benzimidazole O-(methoxy-carbonylmethyl) oxime] showed a melting point of 117 to 119 °C. Also, the IC50 in data set [1] was determined as 19 nM.

Consider `CCOC(=O)c1cccc(-n2cnc3cc(-c4ccno4)ccc32)c1` [compound 6a2, 5-(5-Isoxazolyl)-1-(3-ethoxycarbonyl)phenyl benzimidazole], for which the melting point lay in the range of 156 to 157 °C. The IC50 in data set [1] came out at 3 nM.

Compound `O=C(OCc1ccccn1)c1cccc(-n2cnc3cc(-c4ccccc4)ccc32)c1` [compound 6b3, 5-Phenyl-1-(3-(2-picolyloxycarbonyl)phenyl)benzimidazole] gave a melting point of 149 to 150 °C. In data set [1], the IC50 was 8 nM.

`CCOC(=O)C(=CN1CCN(c2cccc(-n3cnc4cc(-c5ccoc5)ccc43)c2)CC1)C(=O)OCC` [compound 6c6, 5-(3-Furanyl)-1-(3-(4-(2,2-bis(ethoxycarbonyl)ethenyl)piperazin-1-yl)phenyl)-benzimidazole] gave a melting point of 97 to 102 °C. This compound yielded an IC50 in data set [1] of 7 nM.
